Test results reported in patent US20220213047A1, “CARBONIC ANHYDRASE INHIBITORS FOR TREATMENT OF NEISSERIA GONORRHOEAE INFECTION” (Purdue Research Foundation, priority 2021, published 2022).
Values after ≈ are worked out from the molar mass of the structure shown.

Columns and labels:
N. gonorrhoeae [1] = experiment: MIC by agar dilution on a larger panel of N. gonorrhoeae strains; assay type: cell-based, Neisseria gonorrhoeae; conditions: Neisseria gonorrhoeae
Protocol: (§1) These tests were performed in normal culture conditions with standard CO2 levels and in CO2 (5% in incubator) conditions.

N. gonorrhoeae [2] = experiment: MIC against N. gonorrhoeae clinical isolates, normal and CO2 conditions; assay type: cell-based; conditions: Neisseria gonorrhoeae
Protocol: as §1

[3] = strain panel of Table 9, CO2 (5% CO2 containing air)

MIC (N. gonorrhoeae [1]; N. gonorrhoeae 165, CO2 (5% CO2 containing air), read-out: MIC): > 128 µg/mL | MIC (N. gonorrhoeae [1]; N. gonorrhoeae 165, Non CO2 (ambient air), read-out: MIC): 2 µg/mL (≈ 6.55 µM) | MIC (N. gonorrhoeae [1]; N. gonorrhoeae 166, CO2 (5% CO2 containing air), read-out: MIC): > 128 µg/mL | MIC (N. gonorrhoeae [1]; N. gonorrhoeae 166, Non CO2 (ambient air), read-out: MIC): 8 µg/mL (≈ 26.2 µM) | MIC (N. gonorrhoeae [1]; N. gonorrhoeae 167, CO2 (5% CO2 containing air), read-out: MIC): > 128 µg/mL | MIC (N. gonorrhoeae [1]; N. gonorrhoeae 167, Non CO2 (ambient air), read-out: MIC): 4 µg/mL (≈ 13.1 µM) | MIC (N. gonorrhoeae [1]; N. gonorrhoeae 170, CO2 (5% CO2 containing air), read-out: MIC): > 128 µg/mL | MIC (N. gonorrhoeae [1]; N. gonorrhoeae 170, Non CO2 (ambient air), read-out: MIC): 64 µg/mL (≈ 210 µM) | MIC (N. gonorrhoeae [1]; N. gonorrhoeae 171, CO2 (5% CO2 containing air), read-out: MIC): > 128 µg/mL | MIC (N. gonorrhoeae [1]; N. gonorrhoeae 171, Non CO2 (ambient air), read-out: MIC): 1 µg/mL (≈ 3.28 µM) | MIC (N. gonorrhoeae [1]; N. gonorrhoeae 173, CO2 (5% CO2 containing air), read-out: MIC): > 128 µg/mL | MIC (N. gonorrhoeae [1]; N. gonorrhoeae 173, Non CO2 (ambient air), read-out: MIC): 2 µg/mL (≈ 6.55 µM) | MIC (N. gonorrhoeae [1]; N. gonorrhoeae 174, CO2 (5% CO2 containing air), read-out: MIC): > 128 µg/mL | MIC (N. gonorrhoeae [1]; N. gonorrhoeae 174, Non CO2 (ambient air), read-out: MIC): 2 µg/mL (≈ 6.55 µM) | MIC (N. gonorrhoeae [1]; N. gonorrhoeae 175, CO2 (5% CO2 containing air), read-out: MIC): > 128 µg/mL | MIC (N. gonorrhoeae [1]; N. gonorrhoeae 175, Non CO2 (ambient air), read-out: MIC): 16 µg/mL (≈ 52.4 µM) | MIC (N. gonorrhoeae [1]; N. gonorrhoeae 176, CO2 (5% CO2 containing air), read-out: MIC): > 128 µg/mL | MIC (N. gonorrhoeae [1]; N. gonorrhoeae 176, Non CO2 (ambient air), read-out: MIC): 4 µg/mL (≈ 13.1 µM) | MIC (N. gonorrhoeae [1]; N. gonorrhoeae 177, CO2 (5% CO2 containing air), read-out: MIC): 128 µg/mL (≈ 419 µM) | MIC (N. gonorrhoeae [1]; N. gonorrhoeae 177, Non CO2 (ambient air), read-out: MIC): 4 µg/mL (≈ 13.1 µM) | MIC (N. gonorrhoeae [1]; N. gonorrhoeae 178, CO2 (5% CO2 containing air), read-out: MIC): > 128 µg/mL | MIC (N. gonorrhoeae [1]; N. gonorrhoeae 178, Non CO2 (ambient air), read-out: MIC): 1 µg/mL (≈ 3.28 µM) | MIC (N. gonorrhoeae [1]; N. gonorrhoeae 179, CO2 (5% CO2 containing air), read-out: MIC): > 128 µg/mL | MIC (N. gonorrhoeae [1]; N. gonorrhoeae 179, Non CO2 (ambient air), read-out: MIC): 8 µg/mL (≈ 26.2 µM) | MIC (N. gonorrhoeae [1]; N. gonorrhoeae 180, CO2 (5% CO2 containing air), read-out: MIC): > 128 µg/mL | MIC (N. gonorrhoeae [1]; N. gonorrhoeae 180, Non CO2 (ambient air), read-out: MIC): 8 µg/mL (≈ 26.2 µM) | MIC (N. gonorrhoeae [1]; N. gonorrhoeae 181, CO2 (5% CO2 containing air), read-out: MIC): 128 µg/mL (≈ 419 µM) | MIC (N. gonorrhoeae [1]; N. gonorrhoeae 181, Non CO2 (ambient air), read-out: MIC): 8 µg/mL (≈ 26.2 µM) | MIC (N. gonorrhoeae [1]; N. gonorrhoeae 182, CO2 (5% CO2 containing air), read-out: MIC): > 128 µg/mL | MIC (N. gonorrhoeae [1]; N. gonorrhoeae 182, Non CO2 (ambient air), read-out: MIC): 16 µg/mL (≈ 52.4 µM) | MIC (N. gonorrhoeae [1]; N. gonorrhoeae 183, CO2 (5% CO2 containing air), read-out: MIC): 128 µg/mL (≈ 419 µM) | MIC (N. gonorrhoeae [1]; N. gonorrhoeae 183, Non CO2 (ambient air), read-out: MIC): 1 µg/mL (≈ 3.28 µM) | MIC (N. gonorrhoeae [1]; N. gonorrhoeae 184, CO2 (5% CO2 containing air), read-out: MIC): > 128 µg/mL | MIC (N. gonorrhoeae [1]; N. gonorrhoeae 184, Non CO2 (ambient air), read-out: MIC): 4 µg/mL (≈ 13.1 µM) | MIC (N. gonorrhoeae [1]; N. gonorrhoeae 185, CO2 (5% CO2 containing air), read-out: MIC): > 128 µg/mL | MIC (N. gonorrhoeae [1]; N. gonorrhoeae 185, Non CO2 (ambient air), read-out: MIC): 8 µg/mL (≈ 26.2 µM) | MIC (N. gonorrhoeae [1]; N. gonorrhoeae 186, CO2 (5% CO2 containing air), read-out: MIC): > 128 µg/mL | MIC (N. gonorrhoeae [1]; N. gonorrhoeae 186, Non CO2 (ambient air), read-out: MIC): 8 µg/mL (≈ 26.2 µM) | MIC (N. gonorrhoeae [1]; N. gonorrhoeae 188, CO2 (5% CO2 containing air), read-out: MIC): > 128 µg/mL | MIC (N. gonorrhoeae [1]; N. gonorrhoeae 188, Non CO2 (ambient air), read-out: MIC): 1 µg/mL (≈ 3.28 µM) | MIC (N. gonorrhoeae [1]; N. gonorrhoeae 191, CO2 (5% CO2 containing air), read-out: MIC): > 128 µg/mL | MIC (N. gonorrhoeae [1]; N. gonorrhoeae 191, Non CO2 (ambient air), read-out: MIC): 4 µg/mL (≈ 13.1 µM) | MIC (N. gonorrhoeae [1]; N. gonorrhoeae 193, CO2 (5% CO2 containing air), read-out: MIC): 128 µg/mL (≈ 419 µM) | MIC (N. gonorrhoeae [1]; N. gonorrhoeae 193, Non CO2 (ambient air), read-out: MIC): 4 µg/mL (≈ 13.1 µM) | MIC (N. gonorrhoeae [1]; N. gonorrhoeae 194, CO2 (5% CO2 containing air), read-out: MIC): 128 µg/mL (≈ 419 µM) | MIC (N. gonorrhoeae [1]; N. gonorrhoeae 194, Non CO2 (ambient air), read-out: MIC): 4 µg/mL (≈ 13.1 µM) | MIC (N. gonorrhoeae [1]; N. gonorrhoeae 196, CO2 (5% CO2 containing air), read-out: MIC): > 128 µg/mL | MIC (N. gonorrhoeae [1]; N. gonorrhoeae 196, Non CO2 (ambient air), read-out: MIC): 1 µg/mL (≈ 3.28 µM) | MIC (N. gonorrhoeae [1]; N. gonorrhoeae 197, CO2 (5% CO2 containing air), read-out: MIC): > 128 µg/mL | MIC (N. gonorrhoeae [1]; N. gonorrhoeae 197, Non CO2 (ambient air), read-out: MIC): 4 µg/mL (≈ 13.1 µM) | MIC (N. gonorrhoeae [1]; N. gonorrhoeae 198, CO2 (5% CO2 containing air), read-out: MIC): > 128 µg/mL | MIC (N. gonorrhoeae [1]; N. gonorrhoeae 198, Non CO2 (ambient air), read-out: MIC): 1 µg/mL (≈ 3.28 µM) | MIC (N. gonorrhoeae [1]; N. gonorrhoeae 200, CO2 (5% CO2 containing air), read-out: MIC): > 128 µg/mL | MIC (N. gonorrhoeae [1]; N. gonorrhoeae 200, Non CO2 (ambient air), read-out: MIC): 32 µg/mL (≈ 105 µM) | MIC (N. gonorrhoeae [1]; N. gonorrhoeae 202, CO2 (5% CO2 containing air), read-out: MIC): > 128 µg/mL | MIC (N. gonorrhoeae [1]; N. gonorrhoeae 202, Non CO2 (ambient air), read-out: MIC): 16 µg/mL (≈ 52.4 µM) | MIC (N. gonorrhoeae [1]; N. gonorrhoeae 203, CO2 (5% CO2 containing air), read-out: MIC): > 128 µg/mL | MIC (N. gonorrhoeae [1]; N. gonorrhoeae 203, Non CO2 (ambient air), read-out: MIC): 1 µg/mL (≈ 3.28 µM) | MIC (N. gonorrhoeae [1]; N. gonorrhoeae 205, CO2 (5% CO2 containing air), read-out: MIC): > 128 µg/mL | MIC (N. gonorrhoeae [1]; N. gonorrhoeae 205, Non CO2 (ambient air), read-out: MIC): 16 µg/mL (≈ 52.4 µM) | MIC (N. gonorrhoeae [1]; N. gonorrhoeae 206, CO2 (5% CO2 containing air), read-out: MIC): > 128 µg/mL | MIC (N. gonorrhoeae [1]; N. gonorrhoeae 206, Non CO2 (ambient air), read-out: MIC): 4 µg/mL (≈ 13.1 µM) | MIC (N. gonorrhoeae [1]; N. gonorrhoeae 207, CO2 (5% CO2 containing air), read-out: MIC): > 128 µg/mL | MIC (N. gonorrhoeae [1]; N. gonorrhoeae 207, Non CO2 (ambient air), read-out: MIC): 4 µg/mL (≈ 13.1 µM) | MIC (N. gonorrhoeae [1]; N. gonorrhoeae 208, CO2 (5% CO2 containing air), read-out: MIC): > 128 µg/mL | MIC (N. gonorrhoeae [1]; N. gonorrhoeae 208, Non CO2 (ambient air), read-out: MIC): 4 µg/mL (≈ 13.1 µM) | MIC (N. gonorrhoeae [1]; N. gonorrhoeae 209, CO2 (5% CO2 containing air), read-out: MIC): > 128 µg/mL | MIC (N. gonorrhoeae [1]; N. gonorrhoeae 209, Non CO2 (ambient air), read-out: MIC): 1 µg/mL (≈ 3.28 µM) | MIC (N. gonorrhoeae [1]; N. gonorrhoeae 210, CO2 (5% CO2 containing air), read-out: MIC): > 128 µg/mL | MIC (N. gonorrhoeae [1]; N. gonorrhoeae 210, Non CO2 (ambient air), read-out: MIC): 4 µg/mL (≈ 13.1 µM) | MIC (N. gonorrhoeae [1]; N. gonorrhoeae 211, CO2 (5% CO2 containing air), read-out: MIC): > 64 µg/mL | MIC (N. gonorrhoeae [1]; N. gonorrhoeae 211, Non CO2 (ambient air), read-out: MIC): 1 µg/mL (≈ 3.28 µM) | MIC (N. gonorrhoeae [1]; N. gonorrhoeae 212, CO2 (5% CO2 containing air), read-out: MIC): > 128 µg/mL | MIC (N. gonorrhoeae [1]; N. gonorrhoeae 212, Non CO2 (ambient air), read-out: MIC): 32 µg/mL (≈ 105 µM) | MIC (N. gonorrhoeae [1]; N. gonorrhoeae 213, CO2 (5% CO2 containing air), read-out: MIC): > 128 µg/mL | MIC (N. gonorrhoeae [1]; N. gonorrhoeae 213, Non CO2 (ambient air), read-out: MIC): 16 µg/mL (≈ 52.4 µM) | MIC (N. gonorrhoeae [1]; N. gonorrhoeae 214, CO2 (5% CO2 containing air), read-out: MIC): > 128 µg/mL | MIC (N. gonorrhoeae [1]; N. gonorrhoeae 214, Non CO2 (ambient air), read-out: MIC): 1 µg/mL (≈ 3.28 µM) | MIC50 (N. gonorrhoeae [1]; [3]): > 128 µg/mL | MIC90 (N. gonorrhoeae [1]; [3]): > 128 µg/mL | MIC (N. gonorrhoeae [1]; strain panel of Table 9, CO2 (5% CO2 containing air), read-out: Modal MIC): > 128 µg/mL | MIC50 (N. gonorrhoeae [1]; strain panel of Table 9, Non CO2 (ambient air)): 4 µg/mL (≈ 13.1 µM) | MIC (N. gonorrhoeae [1]; strain panel of Table 9, Non CO2 (ambient air), read-out: Modal MIC): 4 µg/mL (≈ 13.1 µM) | MIC90 (N. gonorrhoeae [1]; strain panel of Table 9, Non CO2 (ambient air, standard CO2 conditions)): 16 µg/mL (≈ 52.4 µM)
Structure (SMILES): NS(=O)(=O)c1cc(Cl)c(Cl)c(S(N)(=O)=O)c1 [Dichlorphenamide]
MIC (N. gonorrhoeae [2]; N. gonorrhoeae 178, Non CO2 environment): 2 µg/mL (≈ 6.55 µM) | MIC (N. gonorrhoeae [2]; N. gonorrhoeae 178, normal growth environment (with CO2)): > 64 µg/mL | MIC (N. gonorrhoeae [2]; N. gonorrhoeae 181, Non CO2 environment): 8 µg/mL (≈ 26.2 µM) | MIC (N. gonorrhoeae [2]; N. gonorrhoeae 181, normal growth environment (with CO2)): > 64 µg/mL | MIC (N. gonorrhoeae [2]; N. gonorrhoeae 194, Non CO2 environment): 4 µg/mL (≈ 13.1 µM) | MIC (N. gonorrhoeae [2]; N. gonorrhoeae 194, normal growth environment (with CO2)): > 64 µg/mL
